From patent publication US20240294525A1, “COMPOUNDS AS GLP-1 RECEPTOR AGONISTS AND USES THEREOF” (CGENETECH (SUZHOU, CHINA) CO., LTD., priority 2021, published 2024) come the findings set out here.

One data set deals with GLP-1R (Homo sapiens, UniProt P43220). Nature of the data set: GLP-1R cAMP experiment (HTRF cAMP agonist detection). Format: cell-based. To be noted: GLP-1R-HEK293 cells. The protocol:
The initial concentration was 500 nM, the compounds were diluted according to a 4-fold gradient in a total of 10 concentrations, and the diluent was dimethyl sulfoxide.
• 1) 100 nL of each compound was transferred to a OptiPlate 384-well plate by using an Echo liquid transfer system; and • 2) the 384-well plate was centrifuged at 1000 rpm for 5 s.
• 1) According to a conventional cell thawing method, a GLP-1R-HEK293 cell line was rapidly thawed in a 37° C. water bath; • 2) the cell suspension was transferred to a 15 mL centrifuge tube containing 10 mL of 1×HBSS solution; • 3) at room temperature, the tube was centrifuged at 1000 rpm for 5 min, to collect cells; 4) a supernatant was discarded carefully, and attention was paid to avoid sucking away the cells; • 5) the centrifuge tube was flicked gently, so that the cells were loosened, and 10 mL of 1×HBSS solution was added to resuspend the cells. The cells were blown and beaten up and down by using a sterile pipette, until the cells were blown and beaten to a single-cell state; • 6) the cells were counted by using a Vi-cell counter, to determine the cell concentration and determine the cell activity; • 7) GLP-1R-HEK293 cells were resuspended in a cAMP detection buffer solution (from the above cAMP detection kit), and the concentration was 2.0×10^5/mL; and 8) 10 μL of the GLP-1R-HEK293 cells was transferred into the OptiPlate 384-well plate. 2.4 HTRF cAMP Agonist Detection • 1) The 384-well plate was incubated at room temperature for 20 min, then a cAMP detection reagent (from the above cAMP detection kit) was added; • 2) an electric multi-channel pipette was used to add 10 μL of the cAMP detection reagent to each well; • 3) the 384-well plate was covered by using a TopSeal-A film, and incubated at room temperature for 60 min; and • 4) the TopSeal-A film was removed, and a signal on an Envision instrument was read.
A general note: Time-resolved FRET reads energy transfer from a long-lived donor to a nearby acceptor.

The nature of data set [1]: Oral pharmacokinetics in mice. The class given is in vivo, C57 mice. As to conditions: male, C57, mouse, in vivo, po, 10 mg/kg. The protocol:
Healthy male C57 mice (9 mice per compound, n=3), purchased from Shanghai Jihui Laboratory Animal Care Co., LTD, with an age of 6-8 weeks.
The mice were fasted overnight before oral administration, and drunk freely, and feeding was resumed after 4 h of the administration. According to the weight of the mice weighed before the administration, the administration dose was calculated. It was intragastrically administered, and the administration dose was 10 mg/kg. At 0.083 h, 0.25 h, 0.5 h, 1 h, 2 h, 4 h, 8 h, and 24 h after the administration to test animals, about 110 μL of whole blood were respectively collected from submandibular veins of the mice by a semi-continuous method, and placed in a test tube containing K2EDTA. The tube was placed on ice, and centrifuged within 30 min (2000 g, 5 min, 4° C.), plasma was collected, transferred to an appropriately labeled test tube, and frozen at −80° C. in a refrigerator.
A chromatographic column was Waters ACQUITY UPLC BEH C18 (2.1×50 mm, and 1.7 μm); mobile phase A: H2O-0.025% FA-1 mM NH4OAC, mobile phase B: ACN-0.025% FA-1 mM NH4OAC, flow rate: 0.60 mL/min, gradient elution program: start, 2% B, 0.2 min; 60% B, 0.7 min; 90% B, 1.50 min; 90% B, 2.0 min; 2% B, 2.01 min; 2.6 min, and stop; column temperature: 50° C.; and injection volume: 1 μL.
Mass spectrometry method: LC-MS/MS-49 (Triple Quad 6500+)(SCIEX, USA), the ion source was an ESI source, the detection mode was positive ion detection, and the scanning mode was a multi-reaction monitoring (MRM) mode, m/z: 446.20/321.10 Da (Glipizide, internal standard).
10 μL of a plasma sample was taken and 200 μL of an internal standard working solution (Glipizide, 50 ng/mL) was added, vortex was performed for 1 min, then the mixture was centrifuged at 5800 rpm for 10 min. 70 μL of a supernatant was transferred to a 96-well plate, and 1 μL of the supernatant was taken and injected into LC-MS/MS for analysis.
Pharmacokinetic (PK) parameters were calculated by using Phoenix WinNonlin 7.0; and the oral pharmacokinetic parameters of the mice, including AUC, Cmax, Tmax, T1/2 and the like, were estimated by using a non-compartmental model. […] PGP-46 T2

The EC50 is the midpoint of the concentration-response curve. Lower therefore signals greater potency. As a reminder, the AUC(0-inf) is total exposure, with the tail of the curve extrapolated. What is called AUC(0-t) is exposure summed from dosing to a finite time, without extrapolation to infinity. As usually defined, the Cmax is the maximum level reached in the sampled fluid or tissue. As usually defined, the MRT inf is the average time that molecules of a dose stay in the body. The MRT last is the average time that molecules of a dose stay in the body. For orientation: Tmax means the time at which the peak concentration occurs. What is called half-life is the time in which the quantity being followed falls by half.

Chain of GLP-1R (P43220 24-463): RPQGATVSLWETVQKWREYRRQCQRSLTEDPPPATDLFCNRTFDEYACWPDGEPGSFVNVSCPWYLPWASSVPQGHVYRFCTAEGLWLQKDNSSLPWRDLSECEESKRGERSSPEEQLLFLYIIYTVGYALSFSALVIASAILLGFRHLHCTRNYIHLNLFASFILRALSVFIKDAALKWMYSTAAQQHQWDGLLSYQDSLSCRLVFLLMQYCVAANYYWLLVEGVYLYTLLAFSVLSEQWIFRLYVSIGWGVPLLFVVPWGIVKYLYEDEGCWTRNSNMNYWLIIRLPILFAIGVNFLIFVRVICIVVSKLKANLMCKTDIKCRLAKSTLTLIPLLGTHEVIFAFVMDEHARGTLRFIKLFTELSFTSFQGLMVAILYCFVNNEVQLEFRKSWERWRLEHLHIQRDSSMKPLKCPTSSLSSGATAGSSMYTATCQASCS

In the case of `C#Cc1ccc(COc2cccc(C3CCN(Cc4nc5ccc(C(=O)O)cc5n4C[C@@H]4CCO4)CC3)n2)c(F)c1` [Compound 1], the response on GLP-1R was half-maximal at 0.82 nM (EC50). In data set [1], this compound gave an AUC(0-inf) of 3560 ng·h/mL, an AUC(0-t) of 3310 ng·h/mL, a Cmax of 1700 ng/mL and a mean residence time MRT inf of 1.8 h. For the same compound, in data set [1], the MRT last stood at 1.5 h, the Tmax is 0.5 h and the half-life is 2.2 h.
In turn, `C#Cc1ccc(COc2cccc(N3CCN(Cc4nc5ccc(C(=O)O)cc5n4C[C@@H]4CCO4)CC3)n2)cc1` [Compound 7] came in with an EC50 at GLP-1R of 0.39 nM. Besides, in data set [1], the AUC(0-inf) came to 12500 ng·h/mL, the AUC(0-t) was found to be 12500 ng·h/mL, the highest level (Cmax) was 6170 ng/mL and the MRT inf was determined as 2 h. Also, in data set [1], the MRT last worked out at 2 h, the Tmax is 0.5 h and the half-life was 3.1 h.
As for `CC#Cc1ccc(COc2cccc(N3CCN(Cc4nc5ccc(C(=O)O)cc5n4C[C@@H]4CCO4)CC3)n2)c(F)c1` [Compound 3], a half-maximal response on GLP-1R (EC50) required 0.8 nM.
Still for that read-out and setting: next, `C#Cc1ccc(COc2nc(C3CCN(Cc4nc5ccc(C(=O)O)nc5n4C[C@@H]4CCO4)CC3)ccc2F)c(F)c1` [Compound 20]: 0.59 nM; `C#Cc1ccc(COc2cccc(N3CCN(Cc4nc5c(F)cc(C(=O)O)cc5n4C[C@@H]4CCO4)CC3)n2)c(Cl)c1` [Compound 12]: 0.41 nM.
Take `C#Cc1ccc(COc2cccc(C3CCN(Cc4nc5c(F)cc(C(=O)O)cc5n4C[C@@H]4CCO4)CC3)n2)c(F)c1` [Compound 11]: the EC50 at GLP-1R is 0.14 nM. Besides, in data set [1], the AUC(0-inf) came out at 2280 ng·h/mL, the AUC(0-t) came out at 2270 ng·h/mL, the highest level (Cmax) was 2030 ng/mL and the MRT inf was 1.9 h. In data set [1], the MRT last was determined as 1.8 h, the Tmax stood at 0.5 h and the half-life is 3.9 h.
Turning to `C#Cc1ccc(COc2nc(N3CCN(Cc4nc5ccc(C(=O)O)nc5n4C[C@@H]4CCO4)CC3)ccc2F)c(Cl)c1` [Compound 18], on GLP-1R, it took 0.37 nM to reach a half-maximal effect (EC50). In data set [1], this compound showed an AUC(0-inf) of 4140 ng·h/mL, an AUC(0-t) of 4130 ng·h/mL, a Cmax of 1470 ng/mL and an MRT inf of 3.1 h. Besides, in data set [1], the MRT last worked out at 3.1 h, the Tmax was found to be 0.5 h and the half-life is 2.6 h.
As for `C#Cc1ccc(COc2cccc(N3CCN(Cc4nc5ccc(C(=O)O)nc5n4C[C@@H]4CCO4)CC3)n2)c(F)c1` [Compound 9], at GLP-1R, a half-maximal response (EC50) required 0.15 nM. In data set [1], this compound had an AUC(0-inf) of 3920 ng·h/mL, an AUC(0-t) of 3880 ng·h/mL, a Cmax of 2620 ng/mL and an MRT inf of 1.4 h. In addition, in data set [1], the MRT last was 1.3 h, the Tmax turned out to be 0.5 h and the half-life was 1.4 h.
At GLP-1R, `C#Cc1ccc(COc2nc(N3CCN(Cc4nc5ccc(C(=O)O)cc5n4C[C@@H]4CCO4)CC3)ccc2F)c(F)c1` [Compound 10] displayed an EC50 of 0.1 nM. Also, in data set [1], the AUC(0-inf) turned out to be 9800 ng·h/mL, the AUC(0-t) worked out at 9780 ng·h/mL, the Cmax turned out to be 4350 ng/mL and the MRT inf came out at 2.6 h. Also, in data set [1], the MRT last is 2.5 h, the Tmax came out at 0.5 h and the half-life was 2.7 h.
